Experimental data: ChEMBL document CHEMBL6177980 (J Med Chem, 2025)
In brackets after ≈: the same amount, converted by molar mass. Activity calls are given as the source filed them. No cut-off for these calls is given here.

Assays:
[1] = AUC (0 to t) in fasted Sprague-Dawley rat at 21 mg/kg, po by LC-MS/MS analysis; format: ADME, organism-based; conditions: in vivo
[2] = Stability of compound at pH 6.8 assessed as change in purity at 1 mg/ml incubated for 4 hrs by HPLC analysis; format: physicochemical; conditions: buffer, pH 6.8, 4 h
[3] = Stability of compound at pH 6.8 assessed as change in purity at 1 mg/ml incubated for 24 hrs by HPLC analysis; format: physicochemical; conditions: buffer, pH 6.8, 24 h
[4] = Stability of compound at pH 4.0 assessed as change in purity at 1 mg/ml incubated for 24 hrs by HPLC analysis; format: physicochemical; conditions: buffer, pH 4, 24 h
[5] = Oral bioavailability in fasted Cynomolgus monkey administered orally by LC-MS/MS analysis; format: ADME, organism-based, Macaca fascicularis; conditions: in vivo
[6] = Stability of compound at pH 1.5 assessed as change in purity at 1 mg/ml incubated for 24 hrs by HPLC analysis; format: physicochemical; conditions: buffer, pH 1.5, 24 h
[7] = Cmax in fasted Sprague-Dawley rat at 21 mg/kg, po by LC-MS/MS analysis; format: ADME, organism-based; conditions: in vivo
[8] = Stability of compound at pH 6.8 assessed as change in purity at 1 mg/ml incubated for 12 hrs by HPLC analysis; format: physicochemical; conditions: buffer, pH 6.8, 12 h
[9] = Stability of compound at pH 4.0 assessed as change in purity at 1 mg/ml incubated for 4 hrs by HPLC analysis; format: physicochemical; conditions: buffer, pH 4, 4 h
[10] = Stability of compound at pH 4.0 assessed as change in purity at 1 mg/ml incubated for 12 hrs by HPLC analysis; format: physicochemical; conditions: buffer, pH 4, 12 h
[11] = Aqueous solubility of compound; format: physicochemical; conditions: aqueous medium
[12] = Stability of compound at pH 1.5 assessed as change in purity at 1 mg/ml incubated for 12 hrs by HPLC analysis; format: physicochemical; conditions: buffer, pH 1.5, 12 h
[13] = Stability of compound at pH 1.5 assessed as change in purity at 1 mg/ml incubated for 4 hrs by HPLC analysis; format: physicochemical; conditions: buffer, pH 1.5, 4 h
[14] = Cmax in fasted Sprague-Dawley rat at 27 mg/kg, po by LC-MS/MS analysis; format: ADME, organism-based; conditions: in vivo
[15] = AUC (0 to t) in fasted Sprague-Dawley rat at 27 mg/kg, po by LC-MS/MS analysis; format: ADME, organism-based; conditions: in vivo
[16] = AUC (0 to t) in fasted Sprague-Dawley rat at 25 mg/kg, po by LC-MS/MS analysis; format: ADME, organism-based; conditions: in vivo
[17] = Cmax in fasted Sprague-Dawley rat at 25 mg/kg, po by LC-MS/MS analysis; format: ADME, organism-based; conditions: in vivo
[18] = AUC (0 to t) in fasted Sprague-Dawley rat at 24 mg/kg, po by LC-MS/MS analysis; format: ADME, organism-based; conditions: in vivo
[19] = Cmax in fasted Sprague-Dawley rat at 24 mg/kg, po by LC-MS/MS analysis; format: ADME, organism-based; conditions: in vivo
[20] = Cmax in fasted Sprague-Dawley rat at 20 mg/kg, po by LC-MS/MS analysis; format: ADME, organism-based; conditions: in vivo
[21] = AUC (0 to t) in fasted Sprague-Dawley rat at 20 mg/kg, po by LC-MS/MS analysis; format: ADME, organism-based; conditions: in vivo
[22] = system: Mammarenavirus choriomeningitidis; assay: In vivo antiviral activity against LCMV infected in C57BL/6-Prf1tm1Sdz/J mouse assessed as animal survival at 300 mg/kg, po qd treated for 7 days; format: functional, organism-based; conditions: time 7.0 day
[23] = system: Mammarenavirus choriomeningitidis; assay: In vivo antiviral activity against LCMV infected in C57BL/6-Prf1tm1Sdz/J mouse assessed as improvement in lymphocytes percentage at 300 mg/kg, po qd treated for 7 days; format: functional, organism-based; conditions: time 7.0 day
[24] = system: Mammarenavirus choriomeningitidis; assay: In vivo antiviral activity against LCMV infected in C57BL/6-Prf1tm1Sdz/J mouse assessed as improvement in body weight loss at 300 mg/kg, po qd treated for 7 days; format: functional, organism-based; conditions: time 7.0 day
[25] = system: Mammarenavirus choriomeningitidis; assay: In vivo antiviral activity against LCMV infected in C57BL/6-Prf1tm1Sdz/J mouse assessed as improvement in platelet count at 300 mg/kg, po qd treated for 7 days; format: functional, organism-based; conditions: time 7.0 day
[26] = AUC (0 to t) in fasted Sprague-Dawley rat at 16.5 mg/kg, po by LC-MS/MS analysis; format: ADME, organism-based; conditions: in vivo
[27] = Cmax in fasted Sprague-Dawley rat at 16.5 mg/kg, po by LC-MS/MS analysis; format: ADME, organism-based; conditions: in vivo
[28] = Cmax in fasted Sprague-Dawley rat at 17.5 mg/kg, po by LC-MS/MS analysis; format: ADME, organism-based; conditions: in vivo
[29] = AUC (0 to t) in fasted Sprague-Dawley rat at 17.5 mg/kg, po by LC-MS/MS analysis; format: ADME, organism-based; conditions: in vivo
[30] = Half life in fasted Cynomolgus monkey administered orally by LC-MS/MS analysis; format: ADME, Macaca fascicularis; conditions: in vivo, route po
[31] = AUC (0 to t) in fasted Sprague-Dawley rat at 15.5 mg/kg, po by LC-MS/MS analysis; format: ADME, organism-based; conditions: in vivo
[32] = Cmax in fasted Sprague-Dawley rat at 15.5 mg/kg, po by LC-MS/MS analysis; format: ADME, organism-based; conditions: in vivo
[33] = Cmax in fasted Sprague-Dawley rat at 19 mg/kg, po by LC-MS/MS analysis; format: ADME, organism-based; conditions: in vivo
[34] = AUC (0 to t) in fasted Sprague-Dawley rat at 19 mg/kg, po by LC-MS/MS analysis; format: ADME, organism-based; conditions: in vivo

| Structure (SMILES) | Activity [2] | Activity [3] | Activity [4] | bioavailability [5] | Activity [6] | Activity [8] | Activity [9] | Activity [10] | Activity [12] | Activity [13] | also measured |
| --- | --- | --- | --- | --- | --- | --- | --- | --- | --- | --- | --- |
| CC(=O)O[C@H]1[C@H](n2ccc(=O)n(COC(=O)c3cccnc3)c2=O)O[C@](F)(COC(=O)C(C)C)[C@H]1OC(C)=O | -6.7% | -31% | -0.2% | 86.4% | -10.4% | -16.4% | -0.1% | -0.1% | -5.6% | -2% | AUC(0-t) [1]: 13.5 µg·h/mL; Cmax [7]: 2.19 µg/mL; solubility [11]: 0.41 mg/mL (≈ 743 µM) |
| O=C(OCn1c(=O)ccn([C@@H]2O[C@](F)(COC(=O)c3cccnc3)[C@@H](OC(=O)c3cccnc3)[C@H]2OC(=O)c2cccnc2)c1=O)c1cccnc1 |  |  |  |  |  |  |  |  |  |  | Cmax [14]: 0.708 µg/mL; AUC(0-t) [15]: 9.08 µg·h/mL |
| CC(C)C(=O)OC[C@@]1(F)O[C@@H](n2ccc(=O)n(COC(=O)[C@@H]3CCCN3C)c2=O)[C@H](OC(=O)C(C)C)[C@@H]1OC(=O)C(C)C.Cl | -62.9% | -95% | -52.7% | 91% | -7.6% | -95% | -10.9% | -29.8% | -3.6% | -1.5% | AUC(0-t) [16]: 14.2 µg·h/mL; Cmax [17]: 2.15 µg/mL |
| CC(C)C(=O)OC[C@@]1(F)O[C@@H](n2ccc(=O)n(COC(=O)[C@@H](N)C(C)C)c2=O)[C@H](OC(=O)C(C)C)[C@@H]1OC(=O)C(C)C.Cl | -90.7% | -98.1% | -2.1% |  | -5.2% | -98.1% | -0.6% | -1.2% | -2.7% | -0.9% | AUC(0-t) [18]: 11.7 µg·h/mL; Cmax [19]: 1.64 µg/mL |
| CC(=O)OC[C@@]1(F)O[C@@H](n2ccc(=O)n(COC(=O)c3cccnc3)c2=O)[C@H](OC(C)=O)[C@@H]1OC(C)=O | -1.6% | -8.6% | -0.1% | 100% | -15.7% | -4.3% | 0% | -0.1% | -8.5% | -3% | solubility [11]: 0.7 mg/mL (≈ 1340 µM); Cmax [20]: 3.12 µg/mL; AUC(0-t) [21]: 15.7 µg·h/mL |
| NC(=O)c1nc(F)cnc1O |  |  |  |  |  |  |  |  |  |  | Activity [22]: inactive; Activity [23]: inactive; Activity [24]: inactive; Activity [25]: inactive |
| CCOC(=O)OCn1c(=O)ccn([C@@H]2O[C@](F)(COC(=O)C(C)C)[C@@H](O)[C@H]2O)c1=O |  |  |  |  |  |  |  |  |  |  | AUC(0-t) [26]: 15.8 µg·h/mL; Cmax [27]: 2.44 µg/mL |
| CC(=O)OCCOC(=O)n1c(=O)ccn([C@@H]2O[C@](F)(COC(=O)C(C)C)[C@@H](O)[C@H]2O)c1=O |  |  |  |  |  |  |  |  |  |  | Cmax [28]: 0.915 µg/mL; AUC(0-t) [29]: 4.3 µg·h/mL |
| CC(C)C(=O)OCn1c(=O)ccn([C@@H]2O[C@](F)(COC(=O)C(C)C)[C@@H](O)[C@H]2O)c1=O | -1% | -4.1% | -3% | 66.2% | -11.2% | -2.4% | -0.9% | -1.8% | -6% | -2% | AUC(0-t) [26]: 20.1 µg·h/mL; half-life [30]: 6.84 h; Cmax [27]: 3.14 µg/mL |
| CC(C)C(=O)OC[C@@]1(F)O[C@@H](n2ccc(=O)n(COC(=O)[C@@H]3CCCN3)c2=O)[C@H](OC(=O)C(C)C)[C@@H]1OC(=O)C(C)C.Cl | -27.6% | -30.6% | -84.8% |  | -7.9% | -30.5% | -35.2% | -62.4% | -4.1% | -1.3% | AUC(0-t) [18]: 7.59 µg·h/mL; Cmax [19]: 1.37 µg/mL |
| CCOC(=O)n1c(=O)ccn([C@@H]2O[C@](F)(COC(=O)C(C)C)[C@@H](O)[C@H]2O)c1=O |  |  |  |  |  |  |  |  |  |  | AUC(0-t) [31]: 4.65 µg·h/mL; Cmax [32]: 0.569 µg/mL |
| CCC(=O)OC[C@@]1(F)O[C@@H](n2ccc(=O)n(COC(=O)c3cccnc3)c2=O)[C@H](OC(=O)CC)[C@@H]1OC(=O)CC | -1.9% | -9.7% | -0.1% |  | -9.8% | -4.9% | 0% | -0.1% | -5.3% | -1.9% |  |
| CC(C)C(=O)O[C@H]1[C@H](n2ccc(=O)n(COC(=O)c3cccnc3)c2=O)O[C@](F)(COC(=O)c2cccnc2)[C@H]1OC(=O)C(C)C | -3.4% | -15.9% | -0.8% | 102% | -7.8% | -8.1% | -0.6% | -0.8% | -4.8% | -2.8% |  |
| CC(C)C(=O)OC[C@@]1(F)O[C@@H](n2ccc(=O)n(COC(=O)c3cccnc3)c2=O)[C@@H]2OC(=O)O[C@@H]21 | -45% | -88.3% | -10.5% |  | -9.5% | -76% | -1.9% | -5.4% | -5.5% | -2.1% | Cmax [33]: 1.2 µg/mL; AUC(0-t) [34]: 9.45 µg·h/mL |
| CC(C)C(=O)OCn1c(=O)ccn([C@@H]2O[C@](F)(COC(=O)C(C)C)[C@@H](OC(=O)C(C)C)[C@H]2OC(=O)C(C)C)c1=O | 0% | -1.8% | 0% |  | -10.8% | -0.4% | 0% | 0% | -3.7% | -1.5% |  |
